# According to article PMC6501426 (Clinical Epigenetics, 2019):
# Tests used:
# human DNMT1 = target: T1, human DNMT1 (Homo sapiens, UniProt P26358); test: DNMT1 assay (radiolabeled SAM, Flashplate); assay type: biochemical
# T1 construct: His; made in house
# Protocol: His-DNMT1 (182 kDa, human) was cloned, expressed, and purified as described by Lee et al.. The DNMT1 assay was performed according to Gros et al.. Briefly, the DNMT1 enzymatic assay is based on the use of radiolabeled SAM, and the methylation occurs in homogeneous phase in 384-well microplates. The reaction is performed with DNMT1 at the final concentration of 90 nM in a total volume of 10 μL including also the chemical compound to be tested at the desired concentration, 1.25 μM of SAM//[methyl-^3H] SAM (3TBq/mmol) mix in a ratio of 3:1 and 0.3 μM of biotinylated DNA duplex. DNMT1, as “maintenance” methyltransferase, requires hemimethylated DNA for the reaction. After 2 h incubation at 37 °C, 8 μL of the reaction’s solution is transferred into a streptavidin 96-well scintillant coated Flashplate^TM containing 190 μL of […] in 50 mM Tris-HCl (pH 7.4). The Flashplate^TM is then agitated at room temperature for 1 h and washed. The plate is read with TopCount (PerkinElmer, Villebon-sur-Yvette, France). The greater the DNMT1 inhibition, the lower will be the scintillation signal correlated to the incorporation of the tritiated methyl groups. In this assay, the negative and positive controls were defined as wells without enzyme and wells without any compound but just DMSO, respectively.
# KG-1 cells = test: Nuclear morphology analysis (Hoechst/PI); assay type: cell-based, human; details: 72 h; considerable increase between 0.5 and 1 μM
# Protocol: (§1) Proliferation and viability of U-937, KG-1, RAJI, PC-3, MDA-MB-231, RPMI1788, PBMCs, and PHA_PBMCs were assessed by trypan blue exclusion assays at the indicated time points. Nuclear morphology changes associated with apoptosis and necrosis were evaluated by fluorescence microscopy after Hoechst and propidium iodide (PI) staining as previously described.
# (§2) Fig. 6 Nuclear morphology analysis in U-937, RAJI, KG-1, and RPMI1788 cells. Cells were treated with increasing doses of MC3353. Upper panels—after 72 h of treatment, the nuclear morphology was analyzed by fluorescence microscopy after Hoechst and PI staining. Pictures are representative of three independent experiments. Lower panels—the results of cell counting are represented as the mean (± SD) of three independent experiments
# RAJI cells = test: Nuclear morphology analysis (Hoechst/PI); assay type: cell-based, human; details: 72 h; drastic increase in cell death rate between 0.5 and 1 μM
# Protocol: as §1, §2
# U-937 cells = test: Nuclear morphology analysis (Hoechst/PI); assay type: cell-based, human; details: 72 h; considerable increase between 0.5 and 1 μM
# Protocol: as §1, §2
# T1 sequence (P26358 whole entry): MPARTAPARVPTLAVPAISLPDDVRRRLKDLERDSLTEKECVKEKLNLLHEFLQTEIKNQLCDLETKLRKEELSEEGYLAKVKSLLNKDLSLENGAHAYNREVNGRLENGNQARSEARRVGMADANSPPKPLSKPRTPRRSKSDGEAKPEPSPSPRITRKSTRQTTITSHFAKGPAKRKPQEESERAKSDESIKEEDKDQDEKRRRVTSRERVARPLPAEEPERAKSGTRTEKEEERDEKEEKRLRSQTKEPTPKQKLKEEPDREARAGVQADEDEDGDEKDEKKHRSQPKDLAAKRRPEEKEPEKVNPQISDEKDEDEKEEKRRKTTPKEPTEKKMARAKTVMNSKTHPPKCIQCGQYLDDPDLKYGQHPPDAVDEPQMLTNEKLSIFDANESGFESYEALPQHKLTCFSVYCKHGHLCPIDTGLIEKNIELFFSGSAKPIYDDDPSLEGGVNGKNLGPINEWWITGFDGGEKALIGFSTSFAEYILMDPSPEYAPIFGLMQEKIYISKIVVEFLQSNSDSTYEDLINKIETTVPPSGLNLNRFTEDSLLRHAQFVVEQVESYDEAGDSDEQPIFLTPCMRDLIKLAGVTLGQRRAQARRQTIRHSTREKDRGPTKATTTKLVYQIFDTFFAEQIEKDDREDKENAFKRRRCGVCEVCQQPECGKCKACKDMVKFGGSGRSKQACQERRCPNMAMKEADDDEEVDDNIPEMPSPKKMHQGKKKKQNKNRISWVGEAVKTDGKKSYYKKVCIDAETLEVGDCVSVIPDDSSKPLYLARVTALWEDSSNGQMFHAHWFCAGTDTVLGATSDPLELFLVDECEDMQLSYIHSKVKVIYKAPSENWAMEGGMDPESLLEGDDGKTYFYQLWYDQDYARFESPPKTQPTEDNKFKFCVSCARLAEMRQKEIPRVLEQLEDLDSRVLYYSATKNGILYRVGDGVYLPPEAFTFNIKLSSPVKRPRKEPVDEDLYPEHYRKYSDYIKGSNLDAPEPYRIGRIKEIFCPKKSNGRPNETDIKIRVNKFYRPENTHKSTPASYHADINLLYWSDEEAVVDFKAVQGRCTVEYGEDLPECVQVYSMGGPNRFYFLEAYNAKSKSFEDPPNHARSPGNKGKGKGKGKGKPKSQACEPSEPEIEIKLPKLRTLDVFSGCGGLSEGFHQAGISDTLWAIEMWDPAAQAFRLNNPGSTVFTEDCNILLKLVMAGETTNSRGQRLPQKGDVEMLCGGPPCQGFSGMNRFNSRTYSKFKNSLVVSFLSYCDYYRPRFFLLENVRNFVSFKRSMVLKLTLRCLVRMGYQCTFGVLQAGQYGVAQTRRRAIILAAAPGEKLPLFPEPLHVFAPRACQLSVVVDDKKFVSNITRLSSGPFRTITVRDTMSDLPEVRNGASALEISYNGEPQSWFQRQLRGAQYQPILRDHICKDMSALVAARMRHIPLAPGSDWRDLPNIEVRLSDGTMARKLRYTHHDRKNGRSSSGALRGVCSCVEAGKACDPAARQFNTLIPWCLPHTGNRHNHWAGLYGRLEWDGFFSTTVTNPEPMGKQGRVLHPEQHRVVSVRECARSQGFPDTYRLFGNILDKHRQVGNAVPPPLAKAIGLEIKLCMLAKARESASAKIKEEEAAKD
structure (smiles),measurement,setting,value
"O=C(Nc1ccc(NC(=O)c2ccc(Nc3ccnc4ccccc34)cc2)cc1)OCc1ccccc1 [MC3353, Benzyl (4-(4-(quinolin-4-ylamino)benzamido)phenyl)carbamate]",EC50,"human DNMT1; radioactivity assay, at least two independent experiments, read-out: EC50 ± SD, hDNMT1",67 ± 4 µM
same,fold less effective than SGI-1027 against hDNMT1,human DNMT1; ratio of EC50 values,5.6 fold
same,fold more potent than RG-108 against hDNMT1,human DNMT1; ratio of EC50 values,6 fold
same,"cell death modality, KG-1",KG-1 cells,induced mainly apoptosis
same,"cell death modality, RAJI",RAJI cells,shift from apoptosis to necrosis
same,"cell death modality, U-937",U-937 cells,induced mainly apoptosis
